PMC3279297 (Bioorganic & medicinal chemistry, 2011)

How the values were obtained:
Format in all cases: biochemical
DENV2 NS2B-NS3 protease = DENV2 NS2B-NS3 protease (Dengue virus type 2, UniProt P14340); test: In vitro DENV2 NS2B-NS3pro inhibition assay; details: compound 25 μM, protease 25 nM, absence of detergent (Figure 2)
WNV NS2B-NS3pro = WNV NS2B-NS3pro (West Nile virus, UniProt Q9Q6P4); test: In vitro WNV NS2B-NS3pro inhibition assay; details: compound 25 μM, protease 28 nM, 0.1% CHAPS (Figure 3)
Chain of WNV NS2B-NS3pro (Q9Q6P4 1506-1683): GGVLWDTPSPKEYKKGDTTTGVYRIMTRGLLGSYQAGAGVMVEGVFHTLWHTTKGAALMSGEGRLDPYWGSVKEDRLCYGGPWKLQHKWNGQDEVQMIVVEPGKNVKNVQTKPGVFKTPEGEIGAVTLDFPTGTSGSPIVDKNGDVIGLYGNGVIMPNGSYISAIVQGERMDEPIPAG
Chain of WNV NS2B-NS3pro (Q9Q6P4 1428-1467): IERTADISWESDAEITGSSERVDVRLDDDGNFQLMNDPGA

DENV2 NS2B-NS3pro = DENV2 NS2B-NS3pro (Dengue virus type 2, UniProt P14340); test: Steady-state kinetics of 7n against DENV2 NS2B-NS3pro; details: 0.025 μM protease
Chain of DENV2 NS2B-NS3pro (P14340 1476-1653): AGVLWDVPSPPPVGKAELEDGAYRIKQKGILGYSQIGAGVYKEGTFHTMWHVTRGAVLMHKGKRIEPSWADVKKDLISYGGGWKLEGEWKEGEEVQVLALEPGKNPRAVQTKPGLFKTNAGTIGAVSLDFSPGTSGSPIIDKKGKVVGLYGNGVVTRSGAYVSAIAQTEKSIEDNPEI
Chain of DENV2 NS2B-NS3pro (P14340 1398-1437): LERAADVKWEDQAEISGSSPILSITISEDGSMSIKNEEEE

Chain of DENV2 NS2B-NS3 protease (P14340 1476-1653): as the sequence (P14340 1476-1653) above
Chain of DENV2 NS2B-NS3 protease (P14340 1398-1437): as the sequence (P14340 1398-1437) above

Row | Compound | inhibitory activity toward DENV NS2B-NS3pro (in words) (DENV2 NS2B-NS3 protease) | inhibitory activity toward WNV NS2B-NS3pro (in words) (WNV NS2B-NS3pro) | Vmax (DENV2 NS2B-NS3pro; inhibitor [7n] 1 μM) | Vmax (DENV2 NS2B-NS3pro; inhibitor [7n] 2 μM) | Vmax (DENV2 NS2B-NS3pro; inhibitor [7n] 5 μM)
1 | O=C(Cn1sc2ccccc2c1=O)NCc1cn(CC(=O)Nc2ccc(Oc3ccccc3)cc2)nn1 [Compound 4l, N-((1-(2-Oxo-2-(4-phenoxyphenylamino)ethyl)-1H-1,2,3-triazol-4-yl)methyl)-2-(3-oxobenzo[d]isothiazol-2(3H)-yl)acetamide] | noteworthy inhibitory activity | weak inhibitory activity |  |  | 
2 | O=C(Cn1sc2ccccc2c1=O)Nc1cccc(OCc2cn(CC(=O)Nc3ccccc3Oc3ccccc3)nn2)c1 [Compound 7n, N-(3-((1-(2-Oxo-2-(2-phenoxyphenylamino)ethyl)-1H-1,2,3-triazol-4-yl)methoxy)phenyl)-2-(3-oxobenzo[d]isothiazol-2(3H)-yl)acetamide] |  |  | 0.1006 ± 0.0029 µM/min | 0.0978 ± 0.0020 µM/min | 0.0994 ± 0.0010 µM/min
3 | Methyl 4-((4-((3-(2-(3-oxobenzo[d]isothiazol-2(3H)-yl)acetamido)phenoxy)methyl)-1H-1,2,3-triazol-1-yl)methyl)benzoate [Compound 7e] | noteworthy inhibitory activity |  |  |  | 
